Data set [1] concerns colorectal carcinoma HCT116 cells. In words: Antiproliferative activity. Type of data set: cell-based, human. As to conditions: read-out: GI50, HCT116, four days.
For data set [2], the system named is HEL cells. In words: HEL cell growth inhibition. Type of data set: cell-based, human. As to conditions: read-out: HEL cell effects, cell growth (IC50); concentration required to reduce cell growth by 50%.
The subject of data set [3] is 1A9-PTX10. In words: Antiproliferative activity. It counts as cell-based, human.
The test system of data set [4] is cytomegalovirus (CMV). In words: Anti-CMV activity in HEL cells as summarised in text. Type of data set: cell-based.
For data set [5], the system named is human ovarian cancer 1A9 cells. In words: Antiproliferative activity. It counts as cell-based. As to conditions: read-out: GI50, 1A9; ovarian 1A9; four days.
Data set [6] relates to HCT116 p53 knockout cells. Type of data set: cell-based, human. As to conditions: read-out: GI50, p53KO, four days.
Data set [7] deals with 1A9-PTX22. In words: Antiproliferative activity. It counts as cell-based, human. Conditions: read-out: GI50, PTX22; paclitaxel-resistant ovarian 1A9-PTX22; four days.
Data set [8] concerns cytomegalovirus (CMV) AD-169 strain. In words: Anti-CMV activity. Type of data set: cell-based. As to conditions: read-out: anti-CMV activity EC50, AD-169 strain.
Data set [9] concerns cytomegalovirus (CMV) Davis strain. In words: Anti-CMV activity. It counts as cell-based. Conditions: read-out: anti-CMV activity EC50, Davis strain.
In data set [10] the test system is HeLa and HEL cell cultures.
Data set [11] has as its system vesicular stomatitis virus (VSV). Type of data set: cell-based. As to conditions: read-out: anti-VSV activity; human cervix carcinoma HeLa cell cultures.
For data set [12] the test system is unchanged. It counts as cell-based. As to conditions: human embryonic lung (HEL) fibroblast cell cultures.
Data set [13] relates to canine kidney MDCK.
Data set [14] has as its system green monkey kidney Vero.
In data set [15] the test system is feline kidney CRFK.
Setting [16] is: read-out: GI50, PTX10, paclitaxel-resistant ovarian 1A9-PTX10, four days.

The text below walks through data of paper PMC3427785 (The Journal of organic chemistry, 2012).

Like-named read-outs stand apart in the source and are kept apart here.

For orientation: GI50 means the concentration at which growth is held to half of that of the control. For orientation: IC50 means the concentration at which inhibition is half-maximal. As for “2-[4-(Ferrocenyl)-1,2,3-triazol-1H-yl]inosine [Compound 22]”, the GI50 in [1] is above 50 µM; in data set [3] (setting [16]), above 50 µM; in data set [5], 29.7 µM; in data set [6] it was above 50 µM; in data set [7] it was 12.9 µM. For the same compound, the IC50 in data set [2] is 123 µM. Moreover, the “activity against cytomegalovirus (in words)” value in [4] (HEL cells) is on record as “marginal activity”.
Consider `OC[C@H]1O[C@@H](n2cnc3c(O)nc(-n4cc(-c5ccccc5)nn4)nc32)C[C@@H]1O` [Compound 25, 2-[4-(Phenyl)-1,2,3-triazol-1H-yl]-2′-deoxyinosine], for which the concentration for 50% growth inhibition (GI50) was above 50 µM in data set [1]; above 50 µM in [3] (setting [16]); 31 µM in [5]; above 50 µM in data set [6]; 14.8 µM in data set [7]. Moreover, in [2], the IC50 was 188 µM. The EC50 in [8] was at least 250 µM; in data set [9], 158 µM. In [4], the “activity against cytomegalovirus (in words)” value is “marginal activity”.
On to `OCc1cn(-c2nc(O)c3ncn([C@H]4C[C@H](O)[C@@H](CO)O4)c3n2)nn1` [Compound 27, 2-[4-(Hydroxymethyl)-1,2,3-triazol-1H-yl]-2′-deoxyinosine], for which the GI50 in data set [1] is above 50 µM; in data set [3] (setting [16]), above 50 µM; in data set [5], 49.4 µM; in [6], above 50 µM; in [7], 32.9 µM. The EC50 in data set [8] and in data set [9] was above 290 µM in each case.
On to “2-[4-(4-Fluorophenyl)-1,2,3-triazol-1H-yl]inosine [Compound 24]”, for which the concentration for 50% growth inhibition (GI50) in [1] was above 50 µM; in data set [3] (setting [16]) it was above 50 µM; in data set [5], 34 µM; in data set [6] it was above 50 µM; in data set [7], 31 µM.
Regarding `OC[C@H]1O[C@@H](n2cnc3c(NCc4ccccc4)nc(-n4cc(-c5ccccc5)nn4)nc32)[C@H](O)[C@@H]1O` [Compound 35, 6-(N-Benzyl)-2-[4-(phenyl)-1,2,3-triazol-1H-yl]adenosine], the concentration for 50% growth inhibition (GI50) was 43.6 µM in data set [1]; above 50 µM in [3] (setting [16]); 5 µM in [5]; above 50 µM in data set [6]; 24.5 µM in data set [7].
Consider `OC[C@H]1O[C@@H](n2cnc3c(O)nc(-n4cc(-c5ccccc5)nn4)nc32)[C@H](O)[C@@H]1O` [Compound 17, 2-[4-(Phenyl)-1,2,3-triazol-1H-yl]inosine], for which the concentration for 50% growth inhibition (GI50) in [1] is above 50 µM; in data set [3] (setting [16]) it was above 50 µM; in data set [5] it was 22.8 µM; in data set [6] it was above 50 µM; in data set [7] it was 4.76 µM. In [10], this compound had a toxicity observed of 100 to 240 µM. In [11], the EC50 was 27 ± 2.4 µM. Moreover, the “anti-VSV activity (in words)” value in [12] is “could not be confirmed”.
For the compound `OC[C@H]1O[C@@H](n2cnc3c(O)nc(-n4cc(-[c-]5cccc5)nn4)nc32)C[C@@H]1O.[Fe+2].c1cc[cH-]c1` [Compound 29, 2-[4-(Ferrocenyl)-1,2,3-triazol-1H-yl]-2′-deoxyinosine], the GI50 in [1] is above 50 µM; in data set [3] (setting [16]), above 50 µM; in data set [5], 41.6 µM; in [6] it was above 50 µM; in data set [7], 18 µM. Besides, the IC50 in [2] was above 200 µM. Besides, the EC50 in data set [8] and in data set [9] was at least 200 µM each time.
Consider “2-[4-(N-Phthalimidomethyl)-1,2,3-triazol-1H-yl]inosine [Compound 21]”, for which the GI50 in data set [1] is above 50 µM; in data set [3] (setting [16]), above 50 µM; in data set [5], 6.32 µM; in [6], above 50 µM; in data set [7], 14.1 µM. The IC50 in data set [2] was above 200 µM.
Take “2-[4-(4-Methoxyphenyl)-1,2,3-triazol-1H-yl]inosine [Compound 19]”: the GI50 in data set [1] was above 50 µM; in [3] (setting [16]), above 50 µM; in data set [5], 29.5 µM; in data set [6] it was above 50 µM; in data set [7] it was 8.56 µM. The half-maximal inhibitory concentration (IC50) in [2] was above 230 µM.
For `O=C1c2ccccc2C(=O)N1Cc1cn(-c2nc(O)c3ncn([C@H]4C[C@H](O)[C@@H](CO)O4)c3n2)nn1` [Compound 28, 2-[4-(N-Phthalimidomethyl)-1,2,3-triazol-1H-yl]-2′-deoxyinosine], the 50% growth inhibitory concentration (GI50) is above 50 µM in data set [1]; above 50 µM in data set [3] (setting [16]); 49.6 µM in data set [5]; above 50 µM in [6]; 32.2 µM in data set [7]. In addition, the EC50 in data set [8] and in data set [9] was above 210 µM throughout.
As to `COc1ccc(-c2cn(-c3nc(O)c4ncn([C@H]5C[C@H](O)[C@@H](CO)O5)c4n3)nn2)cc1` [Compound 26, 2-[4-(4-Methoxyphenyl)-1,2,3-triazol-1H-yl]-2′-deoxyinosine], the GI50 in [1] was above 50 µM; in data set [3] (setting [16]), above 50 µM; in [5], 37.2 µM; in data set [6], above 50 µM; in data set [7], 15.7 µM. The EC50 in [8] and in data set [9] was above 240 µM each time.
As to “2-(4-n-Butyl-1,2,3-triazol-1H-yl)inosine [Compound 23]”, the 50% growth inhibitory concentration (GI50) in data set [1] is above 50 µM; in data set [3] (setting [16]), above 50 µM; in data set [5], 37 µM; in data set [6], above 50 µM; in [7], 28.1 µM. Also, in [2], the IC50 was above 250 µM. For the same compound, the “activity against cytomegalovirus (in words)” value in data set [4] (HEL cells) is recorded as “somewhat more pronounced”.
With `CC(=O)O[C@H]1C(=O)[C@@]2(C)[C@H]([C@H](OC(=O)c3ccccc3)[C@]3(O)C[C@H](OC(=O)[C@H](O)[C@@H](NC(=O)c4ccccc4)c4ccccc4)C(C)=C1C3(C)C)[C@]1(OC(C)=O)CO[C@@H]1C[C@@H]2O` [paclitaxel, reference compound], the concentration for 50% growth inhibition (GI50) in data set [3] (Homo sapiens, 1A9/ptx-10, read-out: GI50, PTX10) is 0.079 µM.
For the compound “2-[4-(Hydroxymethyl)-1,2,3-triazol-1H-yl]inosine [Compound 20]”, the GI50 in [1] is above 50 µM; in data set [3] (setting [16]), above 50 µM; in data set [5] it was 20.4 µM; in [6], 42.6 µM; in [7], 3.53 µM.
For “6-(Morpholin-4-yl)-2-(4-phenyl-1,2,3-triazol-1H-yl)-9-(β-D-ribofuranosyl)purine [Compound 34]”, the GI50 in [1] is 3.7 µM; in data set [3] (setting [16]), 11.7 µM; in [5], 0.18 µM; in data set [6] it was 10.4 µM; in [7], 0.95 µM. In addition, the results for the “minimum detectable morphology-altering (cytotoxic) concentration (MCC)” value in data set [13], in data set [14] and in data set [15] were 8.3 μM, 210 μM and 83 μM, respectively.
Take `CCCCc1cn(-c2nc(O)c3ncn([C@H]4C[C@H](O)[C@@H](CO)O4)c3n2)nn1` [Compound 30, 2-(4-n-Butyl-1,2,3-triazol-1H-yl)-2′-deoxyinosine]: the GI50 was above 50 µM in [1]; above 50 µM in [3] (setting [16]); 46.1 µM in data set [5]; above 50 µM in [6]; 26.9 µM in data set [7]. Besides, the EC50 in data set [8] and in [9] was above 270 µM in each case.
On to “2-[4-(4-Methylphenyl)-1,2,3-triazol-1H-yl]inosine [Compound 18]”, for which the 50% growth inhibitory concentration (GI50) was above 50 µM in [1]; above 50 µM in data set [3] (setting [16]); 38 µM in data set [5]; above 50 µM in data set [6]; 13.4 µM in data set [7]. The IC50 in data set [2] is at least 240 µM. The “activity against cytomegalovirus (in words)” value in data set [4] (HEL cells) was “marginal activity”.
